Consider 71 compounds from patent US9365523B2, “Imidazolyl amide compounds and uses related thereto” (priority 2011, dated 2016).

Where only a bound is given, the exact number is not on record here.

One assay has as its system MeV-Alaska. As to the kind of experiment: Antiviral activity of compound analogs against MeV-Alaska (tables 1-5). In kind it is cell-based, measles virus. Conditions: Measles morbillivirus; Table 5.
The EC50 is the concentration giving half of the maximal effect. A lower EC50 goes with greater potency. As to `Cc1ccc(-n2c(SC(C)(C)C(=O)Nc3ccc(C)cc3Cl)nc3ccccc32)cc1` [Compound 145], the concentration for a half-maximal effect (EC50) is more than 75000 nM.

`Cc1ccc(NC(=O)C(C)Sc2nc3cccnc3n2-c2ccccc2)c(Cl)c1` (centres unmarked) [Compound 146] had an EC50 of 1200 nM.

The compound `Cc1ccc(NC(=O)/C=C\c2nc3ccccc3n2-c2ccccc2)c(Cl)c1` [Compound 138] came in with an EC50 of more than 50000 nM.

Compound `Cc1ccc(NC(=O)/C=C/c2nc3ccccc3n2-c2ccccc2)c(Cl)c1` [Compound 162] showed an EC50 of more than 75000 nM.

Regarding `C#CCn1c(SC(C)C(=O)Nc2ccc(C)cc2Cl)nc(-c2ccccc2)c1-c1ccccc1` (centres unmarked) [Compound 153], the EC50 was more than 75000 nM.

Turning to `CCOC(=O)c1ccc2[nH]c(SC(C)C(=O)Nc3ncc(C)cc3Cl)nc2c1` (centres unmarked) [Compound 164], the EC50 was more than 75000 nM.

On to `COc1ccc(-n2c([S+]([O-])C(C)C(=O)Nc3ccc(C)cc3Cl)nc3ccccc32)cc1` (centres unmarked) [Compound 125], for which the EC50 worked out at 1800 nM.

In turn, `Cc1cccc(-n2c(SC/C=C/c3ccccc3)nc3ccccc32)c1` [Compound 166] had an EC50 of more than 10000 nM.

Take `COc1ccc(-n2c(SC(C)C(=O)N3CCCCC3)nc3ccccc32)cc1` (centres unmarked) [Compound 124]: the concentration giving a half-maximal response (EC50) was more than 75000 nM.

`Cc1ccc(NC(=O)C(C)Sc2nc(-c3ccccc3)c(-c3ccccc3)n2Cc2ccc(F)cc2)c(Cl)c1` (centres unmarked) [Compound 128] came in with an EC50 of more than 75000 nM.

As to `COc1ccc(Cn2c(CCC(=O)Nc3ccc(Cl)cc3Cl)nc3ccccc32)cc1` [Compound 160], the EC50 is more than 75000 nM.

Compound `Cc1ccc(NC(=O)CSc2nc(-c3ccccc3)c(-c3ccccc3)[nH]2)c(Cl)c1` [Compound 142] returned an EC50 of more than 75000 nM.

In the case of `COc1ccc(Cn2c(CC(C)NC(=O)c3ccc(Cl)cc3Cl)nc3ccccc32)cc1` (centres unmarked) [Compound 136], the EC50 is more than 75000 nM.

`COc1ccc(-n2c(SCC(=O)Nc3ncc(Cl)cc3Cl)nc3ccccc32)cc1` [Compound 155] displayed a half-maximal effective concentration (EC50) of 440 nM.

Consider `COc1ccc(-n2c(SC(C)C(=O)Nc3ccc(C)cc3Cl)nc3cccnc32)cc1` (centres unmarked) [Compound 154], for which the EC50 is 1600 nM.

For `CCOC(=O)c1ccc2c(c1)nc(SC(C)C(=O)N(Cc1ccc(OC)cc1)c1ncc(Cl)cc1Cl)n2Cc1ccc(OC)cc1` (centres unmarked) [Compound 134], the EC50 was more than 75000 nM.

Compound `COc1ccc(-n2c(SCC(=O)Nc3ccc(C)cc3Cl)nc3ccccc32)cc1` [Compound 140] displayed an EC50 of 1050 nM.

`COc1ccc(-n2c(CCC(=O)Nc3ccc(C)cc3Cl)nc3ccccc32)cc1` [Compound 159]: the EC50 was more than 150000 nM.

With `COc1ccc(-n2c(S(=O)(=O)C(C)C(=O)Nc3ccccc3)nc3ccccc32)cc1` (centres unmarked) [Compound 139], the half-maximal effective concentration (EC50) was more than 75000 nM.

Staying with this assay, now noted: Table 1.
Compound `COc1ccc(-n2c(SC(C)C(=O)Nc3ccc(C)c(Cl)c3)nc3ccccc32)cc1` (centres unmarked) [Compound 21] gave a concentration for a half-maximal effect (EC50) of 400 nM.

Turning to `COc1ccc(-n2c(SC(C)C(=O)Nc3ccc(F)cc3)nc3ccccc32)cc1` (centres unmarked) [Compound 47], the EC50 was more than 10000 nM.

`COc1ccc(-n2c(SC(C)C(=O)Nc3ncc(C)s3)nc3ccccc32)cc1` (centres unmarked) [Compound 53] showed an EC50 of more than 150000 nM.

`COc1ccc(-n2c(SC(C)C(=O)Nc3nccc(C)n3)nc3ccccc32)cc1` (centres unmarked) [Compound 11]: the EC50 was determined as 600 nM.

As for `COc1ccc(-n2c(SC(C)C(=O)NC3CCCCC3)nc3ccccc32)cc1` (centres unmarked) [Compound 9], the EC50 was more than 75000 nM.

As to `COc1ccc(-n2c(SC(C)C(=O)Nc3ccncc3)nc3ccccc32)cc1` (centres unmarked) [Compound 42], the EC50 was more than 75000 nM.

With `COc1ccc(-n2c(SC(C)C(=O)Nc3cccc(C)c3)nc3ccccc32)cc1` (centres unmarked) [Compound 10], the 50% effective concentration (EC50) amounted to 300 nM.

Consider `COc1ccc(-n2c(SC(C)C(=O)Nc3cc(Cl)ccc3Cl)nc3ccccc32)cc1` (centres unmarked) [Compound 46], for which the response was half-maximal at 500 nM (EC50).

In the case of `COc1ccc(-n2c(SC(C)C(=O)Nc3ccccc3Cl)nc3ccccc32)cc1` (centres unmarked) [Compound 50], the EC50 came out at 140 nM.

The compound `COc1ccc(-n2c(SC(C)C(=O)Nc3ccc(C)cn3)nc3ccccc32)cc1` (centres unmarked) [Compound 24] had an EC50 of 500 nM.

Compound `COc1ccc(-n2c(SC(C)C(=O)Nc3ncc(C(F)(F)F)cc3Cl)nc3ccccc32)cc1` (centres unmarked) [Compound 3] showed an EC50 of 400 nM.

`COc1ccc(-n2c(SC(C)C(=O)Nc3nc(C)cc(Cl)n3)nc3ccccc32)cc1` (centres unmarked) [Compound 7] showed an EC50 of more than 150000 nM.

In turn, `COc1ccc(-n2c(SC(C)C(=O)Nc3ncccn3)nc3ccccc32)cc1` (centres unmarked) [Compound 29] gave an EC50 of 2000 nM.

The compound `COc1ccc(-n2c(SC(C)C(=O)Nc3ccc([N+](=O)[O-])cc3C)nc3ccccc32)cc1` (centres unmarked) [Compound 32] gave an EC50 of more than 9300 nM.

Turning to `COc1ccc(-n2c(SC(C)C(=O)Nc3ccc(C)cc3)nc3ccccc32)cc1` (centres unmarked) [Compound 49], the EC50 was 700 nM.

Regarding `COc1ccc(-n2c(SC(C)C(=O)Nc3cccc([N+](=O)[O-])c3)nc3ccccc32)cc1` (centres unmarked) [Compound 33], the response was half-maximal at 4600 nM (EC50).

Consider `COc1ccc(-n2c(SC(C)C(=O)Nc3cccc(Cl)c3)nc3ccccc32)cc1` (centres unmarked) [Compound 14], for which the EC50 amounted to 500 nM.

Compound `COc1ccc(-n2c(SC(C)C(=O)Nc3cc(Cl)nc(Cl)c3)nc3ccccc32)cc1` (centres unmarked) [Compound 22] had an EC50 of more than 75000 nM.

In turn, `COc1ccc(-n2c(SC(C)C(=O)Nc3ccc(Cl)cn3)nc3ccccc32)cc1` (centres unmarked) [Compound 38] gave an EC50 of 11500 nM.

`COc1ccc(-n2c(SC(C)C(=O)Nc3ccc(NC(C)=O)c(C)c3)nc3ccccc32)cc1` (centres unmarked) [Compound 17] yielded an EC50 of more than 9300 nM.

Turning to `COc1ccc(-n2c(SC(C)C(=O)Nc3nnc(C)c(C)n3)nc3ccccc32)cc1` (centres unmarked) [Compound 6], the EC50 stood at 16600 nM.

`COc1ccc(-n2c(SC(C)C(=O)Nc3ccccc3)nc3ccccc32)cc1` (centres unmarked) [Compound 25] showed an EC50 of 900 nM.

In the case of `COc1ccc(-n2c(SC(C)C(=O)Nc3cc(OC)cc(OC)c3)nc3ccccc32)cc1` (centres unmarked) [Compound 13], the EC50 is more than 75000 nM.

The same assay, now with this note: Table 2.
On to `Cc1ccc(NC(=O)C(C)Sc2nc3ccccc3n2-c2ccc(NCCN(C)C)cc2)c(Cl)c1` (centres unmarked) [Compound 59], for which a half-maximal effect (EC50) was put at 4200 nM.

As to `Cc1ccc(NC(=O)C(C)Sc2nc3ccccc3n2-c2cccc(C(=O)O)c2)c(Cl)c1` (centres unmarked) [Compound 82], the EC50 is more than 75000 nM.

In turn, `Cc1ccc(NC(=O)C(C)Sc2nc3ccccc3n2-c2ccc(CN(C)C)cc2)c(Cl)c1` (centres unmarked) [Compound 98] displayed an EC50 of 1400 nM.

For the compound `Cc1ccc(NC(=O)C(C)Sc2nc3ccccc3n2-c2cccc(CN3CCOCC3)c2)c(Cl)c1` (centres unmarked) [Compound 83], a half-maximal response (EC50) required 270 nM.

In turn, `Cc1ccc(NC(=O)C(C)Sc2nc3ccccc3n2-c2ccc(N3CCN(C)CC3)cc2)c(Cl)c1` (centres unmarked) [Compound 70] yielded an EC50 of 2000 nM.

For `Cc1ccc(NC(=O)C(C)Sc2nc3ccccc3n2-c2ccc(CC=O)cc2)c(Cl)c1` (centres unmarked) [Compound 62], the 50% effective concentration (EC50) was 8500 nM.

Compound `Cc1ccc(NC(=O)C(C)Sc2nc3ccccc3n2-c2ccc(N(C)C)cc2)c(Cl)c1` (centres unmarked) [Compound 77] displayed an EC50 of 290 nM.

`CNCCc1ccc(-n2c(SC(C)C(=O)Nc3ccc(C)cc3Cl)nc3ccccc32)cc1` (centres unmarked) [Compound 66] gave an EC50 of 8700 nM.

On to `Cc1ccc(NC(=O)C(C)Sc2nc3ccccc3n2Cc2ccccc2)c(Cl)c1` (centres unmarked) [Compound 74], for which it took 500 nM to reach a half-maximal effect (EC50).

`Cc1ccc(NC(=O)C(C)Sc2nc3ccccc3n2-c2ccc(CN3CCN(C)CC3)cc2)c(Cl)c1` (centres unmarked) [Compound 63] displayed an EC50 of 4900 nM.

In turn, `Cc1ccc(NC(=O)C(C)Sc2nc3ccccc3n2-c2ccc(OCC#N)cc2)c(Cl)c1` (centres unmarked) [Compound 57] came in with an EC50 of 700 nM.

The compound `Cc1ccc(NC(=O)C(C)Sc2nc3ccccc3n2C2CCCCC2)c(Cl)c1` (centres unmarked) [Compound 88] registered an EC50 of 290 nM.

The compound `Cc1ccc(NC(=O)C(C)Sc2nc3ccccc3n2-c2ccc(N(C)CCN(C)C)cc2)c(Cl)c1` (centres unmarked) [Compound 60] had an EC50 of 2900 nM.

Compound `Cc1ccc(NC(=O)C(C)Sc2nc3ccccc3n2-c2ccc(CO)cc2)c(Cl)c1` (centres unmarked) [Compound 81] gave an EC50 of 3910 nM.

In turn, `Cc1ccc(NC(=O)C(C)Sc2nc3ccccc3n2-c2ccc(CN3CCOCC3)cc2)c(Cl)c1` (centres unmarked) [Compound 56] came in with an EC50 of 320 nM.

In turn, `Cc1ccc(NC(=O)C(C)Sc2nc3ccccc3n2-c2ccc(N)cc2)c(Cl)c1` (centres unmarked) [Compound 78] came in with an EC50 of 1330 nM.

Regarding `Cc1ccc(NC(=O)C(C)Sc2nc3ccccc3n2-c2ccc(N3CCOCC3)cc2)c(Cl)c1` (centres unmarked) [Compound 84], it took 300 nM to reach a half-maximal effect (EC50).

Turning to `Cc1ccc(NC(=O)C(C)Sc2nc3ccccc3n2-c2ccc(C(=O)O)cc2)c(Cl)c1` (centres unmarked) [Compound 97], the EC50 was more than 75000 nM.

`Cc1ccc(NC(=O)C(C)Sc2nc3ccccc3n2S(=O)(=O)c2ccccc2)c(Cl)c1` (centres unmarked) [Compound 90] came in with an EC50 of 40 nM.

Consider `Cc1ccc(NC(=O)C(C)Sc2nc3ccccc3n2C2CCNCC2)c(Cl)c1` (centres unmarked) [Compound 92], for which the EC50 was more than 75000 nM.

In turn, `Cc1ccc(NC(=O)C(C)Sc2nc3ccccc3n2-c2ccc(CCO)cc2)c(Cl)c1` (centres unmarked) [Compound 64] showed an EC50 of 2500 nM.

The same assay, now with this note: Table 3.
`CC(Sc1nc2ccccc2n1Cc1ccccc1)C(=O)Nc1ncc(Cl)cc1Cl` (centres unmarked) [Compound 111] had an EC50 of 4900 nM.

For the compound `COc1cccc(-n2c(SC(C)C(=O)Nc3ncc(C)cc3Cl)nc3ccccc32)c1` (centres unmarked) [Compound 108], the half-maximal effective concentration (EC50) stood at 400 nM.

`COc1ccc(Cn2c(SC(C)C(=O)Nc3ccc(Cl)cc3Cl)nc3ccccc32)cc1` (centres unmarked) [Compound 117] yielded an EC50 of 1700 nM.

`COc1ccc(Cn2c(SC(C)C(=O)Nc3ncc(C)cc3Cl)nc3ccccc32)cc1` (centres unmarked) [Compound 107] had an EC50 of 800 nM.

`CCOc1ccc(-n2c(SC(C)C(=O)Nc3ccc([N+](=O)[O-])cc3C)nc3ccccc32)cc1` (centres unmarked) [Compound 110] registered an EC50 of more than 9300 nM.

`CC(Sc1nc2ccccc2n1C)C(=O)Nc1ncc(Cl)cc1Cl` (centres unmarked) [Compound 113] returned an EC50 of more than 10000 nM.

Regarding `Cc1cnc(NC(=O)C(C)Sc2nc3ccccc3n2-c2ccc(F)cc2)c(Cl)c1` (centres unmarked) [Compound 116], the EC50 worked out at 800 nM.

The same assay, now with this note: in our assays.
For `O=C(CSc1nnc(Br)n1-c1ccc(C2CC2)c2ccccc12)Nc1ccc(C(=O)O)cc1Cl` [RDEA-806, 4-(2-((5-bromo-4-(4-cyclopropylnaphthalen-1-yl)-4H-1,2,4-triazol-3-yl)thio)acetamido)-3-chlorobenzoic acid, reference compound], the MeV inhibitory activity result is recorded as “lacks MeV inhibitory activity”.
